Experimental data from patent US11111500B2, “Mutated protoporphyrinogen IX oxidase (PPX) genes” (CIBUS US LLC, priority 2010, dated 2021).

Tests used:
potato plastidal PPX [1] = assay: Tolerance to flumioxazin of HemG mutant E. coli complemented with potato plastidal PPX (liquid selection, colony count); type: cell-based, Solanum tuberosum
Source text: (§1) StcPPX1, less its chloroplast transit peptide was cloned from cDNA into Cibus' proprietary functional screening vector. This vector may be used both for functional screening, and for GRON QC. The potato PPX genes were used to complement the HemG mutant strain of E. coli, which lacks a functional HemG gene, a bacterial homolog of PPX. Without a complementing gene, the media must be supplemented with hematin for E. coli growth.
(§2) In order to assess mutations that confer tolerance to PPX inhibitors such as Chateau (flumioxazin-Valent/Sumitomo), Naja (diphenylether—MAI) or Kixor (saflufenacil—BASF). Pure active ingredients for the PPX inhibiting herbicides Chateau (flumioxazin—Valent/Sumitomo), Spartan (sulfentrazone—FMC) and Kixor/Sharpen (saflufenacil—BASF) were obtained. […]
(§3) Liquid culture selection conditions were developed for both sulfentrazone and flumioxazin. […] Spectrophotometric readings (OD600) were taken for each sample (1:4 dilution) and a sample of each plated on LB-Chlor-IPTG plates to determine whether the OD600 correlated with the number of viable colonies. […]
(§4) Randomly mutagenized plasmids (5′ and 3′ ends) were transformed into XL1-Blue E. coli cells. […] Colony counts were compared between the two and mutation tolerance determined based on the percentage of colonies on the 0.75 mM sulfentrazone plates as compared with those on the 0 mM plates. […]

potato plastidal PPX [2] = assay: Tolerance to sulfentrazone of HemG mutant E. coli complemented with potato plastidal PPX (plate selection, colony count); type: cell-based, Solanum tuberosum; details: wild-type potato plastidal PPX clone in hemG mutant E. coli
Source text: as §1, §2, §3, §4

| SMILES | colony numbers against the WT gene with increasing flumioxazin (potato plastidal PPX [1]; 0 to 10 mM in 1 mL liquid cultures) | growth of the wildtype construct at 10 mM flumioxazin (potato plastidal PPX [1]; 10 mM flumioxazin, liquid selection) | sulfentrazone concentration on which the wildtype construct did not grow (potato plastidal PPX [2]) [mM] |
| --- | --- | --- | --- |
| C#CCN1C(=O)COc2cc(F)c(N3C(=O)C4=C(CCCC4)C3=O)cc21 [flumioxazin] | steadily decreasing colony numbers | limited growth | – |
| Cc1nn(-c2cc(NS(C)(=O)=O)c(Cl)cc2Cl)c(=O)n1C(F)F [sulfentrazone] | – | – | 2.5 |
